Measured values: patent US20070254930A1, “Oral Preparation Having Improved Bioavailability” (DONG WHA PHARM. IND. CO., LTD., priority 2004, published 2007)

Key:
[1] = Gelation experiment: viscosity of aqueous solutions; format: physicochemical; conditions: for Viscosity: Brookfield DV-II+, 10° C. ± 0.3° C., spindle S 51
Description: The following test was carried out to evaluate the degree of gelation depending on the concentration of 2 methanesulfonic acid salt of the compound of Chemical Formula 1 according to the present invention.
200 mg of 2 methanesulfonic acid salt of the compound of Chemical Formula 1 was dissolved in 10 mL of water (20 mg/mL). The solution was diluted with water to give 20, 10, 5, and 2.5 mg/mL. Viscosity of these diluted solutions was measured according to the following test conditions described in Table 1, and also the results for the test are shown in Table 1.

[2] = pH-dependent water solubility; format: physicochemical; conditions: pH about pH 5 or more

| SMILES | Viscosity ([1]; 2.5 mg/ml in water) | Viscosity ([1]; 5 mg/ml in water) | Viscosity ([1]; 10 mg/ml in water) | Viscosity ([1]; 20 mg/ml in water) | gelation property in aqueous solution (in words) ([1]; aqueous solution) | solubility in aqueous condition (in words) [2] |
| --- | --- | --- | --- | --- | --- | --- |
| CS(=O)(=O)O.CS(=O)(=O)O.Cc1nc(-c2ccc(OCCCCCOc3ccc(C(=N)NO)cc3)cc2)c(C(C)C)s1 [N-hydroxy-4-{5-[4-(5-isopropyl-2-methyl-1,3-thiazol-4-yl)phenoxy]pentoxy}-benzamidine 2 methanesulfonic acid salt] | 6.34 cP | 11.9 cP | 20.0 cP | 78.9 cP | high gelation property | – |
| Cc1nc(-c2ccc(OCCCCCOc3ccc(C(=N)NO)cc3)cc2)c(C(C)C)s1 [compound of Chemical Formula 1, N-hydroxy-4-{5-[4-(5-isopropyl-2-methyl-1,3-thiazol-4-yl)phenoxy]pentoxy}-benzamidine] | – | – | – | – | – | practically insoluble |
